Assay results reported in patent US20240400606A1, “SMALL MOLECULE ACTIVATORS OF THE IMMUNE SYSTEM” (THE BOARD OF TRUSTEES OF THE UNIVERSITY OF ILLINOIS, priority 2021, published 2024).
“Also recorded” adds a separate entry of the source.

Columns and labels:
[1] = system: whole cell CS levels in T47D; test: Whole cell cholesterol sulfate quantification, T47D; assay type: cell-based; settings: 6.25 μM, 72 hours
Procedure: (§1) General Whole Cell Cholesterol Sulfate Quantification. 60×15 mm tissue culture dishes were seeded with MCF-7 at 2×10^6 cells/dish or T47D at 1×10^6 cells per dish, 5 mL total media volume, and allowed to adhere overnight. Compounds of interest were dissolved in DMSO. Cells were treated with 25 μL 1.25 mM compound of interest stock (6.25 μM final compound concentration, 0.5% final DMSO concentration) or DMSO for 72 hours. To harvest, media was aspirated, and cells were washed once with PBS before detaching with trypsin. Trypsin was quenched with media. Cells were centrifuged at 300 xg for 3 minutes and supernatant was discarded. Cells were resuspended in media and counted using a Countess 3 automated cell counter (Thermo Fisher Scientific). 1.5×10^6 cells were collected, washed twice with 1 mL PBS, then pelleted and stored at −80° C. until lysis. […] 100 μL of supernatant was transferred to an empty Eppendorf tube and submitted for LC-MS/MS quantification (UIUC Metabolomics Center), along with 5 mM cholesterol sulfate sodium salt standard.
(§2) General LC-MS/MS Quantification Method. Both DHEAS and CS samples were analyzed by 6500 QTRAP (Sciex, Redwood City, CA) liquid chromatography-tandem mass spectrometry. […] Cholesterol-sulfate and DHEA-sulfate were detected by multiple reaction monitoring (MRM) at m/z 465→97.0 and 367.0→97.0 respectively. […]

[2] = system: whole cell CS levels in MDG; test: Whole cell cholesterol sulfate quantification, MDG; assay type: cell-based, human; settings: 6.25 μM, 72 hours
Procedure: as §1, §2

[3] = system: STS and SULT2B1b levels in MCF-7; test: Western blot of STS and SULT2B1b after treatment, MCF-7; assay type: cell-based, human; settings: MCF-7, 6.25 μM, 72 hours
Procedure: (§3) Western Blot Analysis. Cells were lysed using RIPA buffer containing phosphatase (BioVision) and protease inhibitor cocktail (Calbiochem). Protein concentrations were determined using the BCA assay (Pierce). Lysates containing 15 μg of protein were loaded onto 4-20% gradient gels (BioRad), and SDS-PAGE was run. Proteins were then transferred onto membrane (PVDF Millipore) for Western Blot analysis. Blots were blocked with BSA solution (2 g in 40 mL TBST) for one hour followed by primary antibody addition and incubation overnight (using manufacturer's recommended dilutions). Following overnight incubation, blots were washed with TBST, and incubated with HRP-linked secondary antibody for 1 hour in TBST. Blots were washed, then imaged with ChemiDoc after incubation with SuperSignal West Pico Solution following manufacturer's procedures.

[4] = in vivo, ip
Procedure: Tolerability Studies. Three female C57/BL6 mice were administered single IP doses (formulated in 50% DMSO/50% Peg400) of compound (2). Compound was formulated at a concentration of 20-40 mg/mL depending on dose. Mice were injected with 100 μL formulated compound. Mouse weight and lethality were tracked as indicators of compound tolerability. Tolerability of vehicle had been previously assessed.
Maximum tolerated dose mouse studies: Compound (3) was formulated in 50% DMSO, 50% Peg400 at 20 mg/mL (for 100 mg/kg injection), 25 mg/mL (for 125 mg/kg injection), or 40 mg/mL (for 200 mg/kg injection). Compound was injected intraperitoneally into female C57BL/6 mice, and the mice were monitored for signs of toxicity.

[5] = system: STS and SULT2B1b levels in T47D; test: Western blot of STS and SULT2B1b after treatment, T47D; assay type: cell-based; settings: 6.25 μM, 72 hours
Procedure: as §3

[6] = biological target: SULT2B1b (Homo sapiens (Human), UniProt O00204); test: Compound aggregation assay (LC-MS/MS assay with BSA decoy protein); assay type: biochemical; settings: decoy protein BSA 0.1 mg/mL, dose response; listed as IB:10:D
Procedure: Compound Aggregation Assay. Stock solutions of DHEA (5 mM in DMSO) and compound of interest (5 mM in DMSO) were prepared. For each 60 μL reaction, to a 1.5 mL Eppendorf tube was added 26.7 μL 1× assay buffer supplemented with 0.2 mg/mL bovine serum albumin (BSA) and 1.2 μL compound of interest or DMSO. BSA-containing 1× assay buffer and compound of interest were incubated at room temperature for 5 minutes before addition of 1.2 μL of 5 mM DHEA, and 0.9 μL 6.6 mM PAPS. SULT2B1b was diluted to 1.5 μg/μL in protein storage buffer then down to 0.8 μg/μL in 1× activity assay buffer. 30 μL of 0.8 μg/μL SULT2B1b was added to each reaction. Reactions were incubated for 2 hours at 37° C. with shaking at 250 rpm. To quench, 30 μL reaction mix was added to 30 μL ice cold 0.5% HCl in MeCN, then centrifuged at 13,000 xg at room temperature for 3 min. 50 μL supernatant was transferred to an empty Eppendorf tube and submitted for LC-MS/MS quantification (UIUC Metabolomics Center). For samples run without BSA, an identical protocol was followed using 26.7 μL 1× assay buffer that had not been supplemented with BSA. Controls: Reaction mix made with DHEA, DMSO in place of compound of interest (DHEA control).
Percent inhibition was calculated as: 100−[100×(DHEA-sulfate producedcompound of interest/DHEA sulfate producedDHEA)].

Sequence of SULT2B1b (O00204 whole entry): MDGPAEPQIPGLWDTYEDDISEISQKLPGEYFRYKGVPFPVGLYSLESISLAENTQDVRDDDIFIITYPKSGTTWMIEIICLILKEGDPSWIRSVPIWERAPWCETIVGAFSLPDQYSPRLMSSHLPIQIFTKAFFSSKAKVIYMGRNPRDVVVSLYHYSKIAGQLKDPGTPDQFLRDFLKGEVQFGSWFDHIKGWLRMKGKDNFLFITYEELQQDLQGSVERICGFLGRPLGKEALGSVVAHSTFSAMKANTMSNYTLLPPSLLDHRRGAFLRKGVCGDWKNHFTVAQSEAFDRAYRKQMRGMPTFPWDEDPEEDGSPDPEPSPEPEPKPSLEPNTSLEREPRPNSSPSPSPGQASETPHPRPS

C[C@]12CCC(=O)N(Cc3ccc(Br)cc3)C1=CC[C@@H]1[C@@H]2C(=O)C[C@]2(C)C(=O)CC[C@@H]12 [Compound 3, (4aR,4bS,6aS,9aS,9bS)-1-(4-bromobenzyl)-4a,6a-dimethyl-3,4,4a,6,6a,8,9,9a,9b,10-decahydro-1H-indeno[5,4-f]quinoline-2,5,7(4bH)-trione]
whole cell CS levels vs DMSO [1]: confirmed | whole cell CS levels vs DMSO [2]: confirmed | STS and SULT2B1b levels after treatment [3]: unchanged | tolerated dose ([4]; female, C57BL/6, mouse): up to 200 mg/kg | tolerability ([4]; mouse, 200 mg/kg): not tolerated | STS and SULT2B1b levels after treatment [5]: unchanged

C[C@]12CCC(=O)N(Cc3ccc(Cl)cc3)C1=CC[C@@H]1[C@@H]2C(=O)C[C@]2(C)C(=O)CC[C@@H]12 [Compound 1, (4aR,4bS,6aS,9aS,9bS)-1-(4-chlorobenzyl)-4a,6a-dimethyl-3,4,4a,6,6a,8,9,9a,9b,10-decahydro-1H-indeno[5,4-f]quinoline-2,5,7(4bH)-trione]
shift in SULT2B1b inhibition in the presence of BSA [6]: minimal shift; also recorded: no change
